Assay results: the supplement of paper PMC8671470

What was measured:
Settings in all cases: 72 h
MV4-11 = assay: cell viability (% survival relative to DMSO control, bortezomib = 0%); higher = less cytotoxic
Summary of the method: (§1)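 Percent survival is reported as the mean of duplicate wells. Cells from 10 AML and 5 CML lines were plated in 384-well plates containing compounds at 1, 10, 100, 1000 or 10000 nM and kept for 72 h at 37 °C in 5% CO2. Readout used CellTiter-Glo luminescence, scaled so that vehicle equals 100% and a 10 µM positive control equals 0%.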

K-562 = assay: as above
Summary of the method: as §1

NOMO-1 [1] = assay: as above
Summary of the method: as §1

KCL-22 [2] = assay: as above
Summary of the method: as §1

SHI-1 = assay: as above
Summary of the method: as §1

LAMA-84 = assay: as above
Summary of the method: as §1

ML-2 [3] = assay: as above
Summary of the method: as §1

Mono-Mac-6 = assay: as above
Summary of the method: as §1

KG-1 [4] = assay: as above
Summary of the method: as §1

BV-173 = assay: as above
Summary of the method: as §1

THP-1 = assay: as above
Summary of the method: as §1

HEL = assay: as above
Summary of the method: as §1

HL-60 [5] = assay: as above
Summary of the method: as §1

MOLM-13 = assay: as above
Summary of the method: as §1

KU-812 = assay: as above
Summary of the method: as §1

NOMO-1 [6] = tested on: NOMO-1
Summary of the method: (§2)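 Seeded in RPMI 1640 at densities within the linear growth range, fifteen myeloid leukaemia cell lines were dispensed into 384-well plates with acoustically pre-printed compounds spanning five tenfold doses from 1 to 10,000 nM, in duplicate. The plates were kept for 72 h at 37 °C in 5% CO2 before luminescent ATP viability was measured and normalised to vehicle and to a positive control at 10 µM. Curves were fitted with a four-parameter log-logistic model. The IC50 was taken from those curves.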

KCL-22 [7] = tested on: KCL-22
Summary of the method: as §2

ML-2 [8] = tested on: ML-2
Summary of the method: as §2

KG-1 [9] = tested on: KG-1
Summary of the method: as §2

HL-60 [10] = tested on: HL-60
Summary of the method: as §2

HL-60 [11] = assay: cell viability (% survival relative to DMSO control); higher = less cytotoxic
Summary of the method: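 HL-60 cells grown in RPMI 1640 with 10% FBS were rescreened against the full library in 384-well plates, in duplicate, at five tenfold concentrations from 1 to 10,000 nM, alongside DMSO or 100 nM of one of three metabolic inhibitors for 72 h at 37 °C, 5% CO2. Reference wells contained DMSO or 10 μM proteasome inhibitor. Viability was read with CellTiter-Glo and normalised to these reference wells, and where reported, area under the curve was taken from four-parameter log-logistic fits in drc and PharmacoGx.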

CO[C@H]1C[C@@H]2CC[C@@H](C)[C@@](O)(O2)C(=O)C(=O)N2CCCC[C@H]2C(=O)O[C@H]([C@H](C)C[C@@H]2CC[C@@H](OCCO)[C@H](OC)C2)CC(=O)[C@H](C)/C=C(\C)[C@@H](O)[C@@H](OC)C(=O)[C@H](C)C[C@H](C)/C=C/C=C/C=C/1C [Everolimus]
cell viability [%]
Settings | 1 nM | 10 nM | 100 nM | 1000 nM | 10000 nM
BV-173 | 79.3 | 51.9 | 56 | 43.6 | 34.3
HEL | 94.9 | 65.6 | 67 | 62.3 | 58.5
HL-60 [5] | 91.4 | 75.6 | 86.3 | 54.9 | 43
K-562 | 71 | 50.4 | 48.8 | 44.5 | 30.6
KCL-22 [2] | 66 | 44.6 | 36.2 | 33.8 | 24.6
KG-1 [4] | 54.3 | 45.1 | 41 | 37.3 | 30.5
KU-812 | 58.5 | 44.9 | 44.8 | 39.4 | 36
LAMA-84 | 72.2 | 52.8 | 62.8 | 53.7 | 37.9
ML-2 [3] | 88.7 | 77.3 | 66.6 | 58.6 | 33.8
MOLM-13 | 49 | 38.1 | 48.3 | 29.7 | 34.6
MV4-11 | 62.1 | 64.6 | 61.8 | 53.6 | 22.6
Mono-Mac-6 | 74.2 | 46.4 | 53.1 | 40.7 | 44.2
NOMO-1 [1] | 79.7 | 63.9 | 72.7 | 60.4 | 56.8
SHI-1 | 81.8 | 60.4 | 65.8 | 56.7 | 55.7
THP-1 | 83.8 | 67.5 | 66.9 | 59.8 | 58.9

Settings | IC50 (cell viability) [µM]
HL-60 [10] | 3.92
KCL-22 [7] | 0.00121
KG-1 [9] | < 0.001
ML-2 [8] | 1.53
NOMO-1 [6] | 0.0225

cell viability [%], HL-60 [11]
Settings | 0.001 µM | 0.01 µM | 0.1 µM | 1 µM | 10 µM
co-treatment: AZD3965 100 nM | 100 | 95.63 | 97.03 | 93.2 | 83.2
co-treatment: DMSO vehicle | 84.2 | 90.5 | 93.85 | 98.3 | 93.8
co-treatment: GSK2194069 100 nM | 85.1 | 88.9 | 97.9 | 110.7 | 88.4
co-treatment: pictilisib 100 nM | 78.7 | 88.7 | 87.9 | 89.2 | 72.1

CN(Cc1cnc2nc(N)nc(N)c2n1)c1ccc(C(=O)N[C@@H](CCC(=O)O)C(=O)O)cc1 [Methotrexate]
cell viability [%]
Settings | 1 nM | 10 nM | 100 nM | 1000 nM | 10000 nM
BV-173 | 107 | 98.3 | 2.71 | 1.64 | 2.28
HEL | 102 | 18.6 | 27.9 | 6.63 | 7.79
HL-60 [5] | 81.5 | 32 | 5.38 | 7.28 | 8.39
K-562 | 86.9 | 103 | 13.3 | 18.9 | 21.7
KCL-22 [2] | 97.1 | 59.2 | 40.4 | 21.1 | 20.7
KG-1 [4] | 104 | 93.8 | 98.9 | 94.3 | 92.9
KU-812 | 99 | 63.1 | 38.9 | 33.3 | 42.5
LAMA-84 | 98.8 | 34 | 22.7 | 19.4 | 20.8
ML-2 [3] | 109 | 49.7 | 3.59 | 3.44 | 4.58
MOLM-13 | 88.1 | 33.1 | 0.91 | 0.853 | 0.962
MV4-11 | 112 | 45.4 | 3.4 | 2.47 | 3.21
Mono-Mac-6 | 105 | 44.3 | 5.95 | 7.21 | 7.86
NOMO-1 [1] | 108 | 94.8 | 40.4 | 29.4 | 30.8
SHI-1 | 83.7 | 90.7 | 44.4 | 35.8 | 47.1
THP-1 | 99.8 | 96.6 | 13 | 10.3 | 11.8

Settings | IC50 (cell viability) [µM]
HL-60 [10] | 0.00701
KCL-22 [7] | 0.0126
KG-1 [9] | > 10
ML-2 [8] | 0.00965
NOMO-1 [6] | 0.0515

cell viability [%], HL-60 [11]
Settings | 0.001 µM | 0.01 µM | 0.1 µM | 1 µM | 10 µM
co-treatment: AZD3965 100 nM | 108 | 50.6 | 28 | 26.3 | 26.8
co-treatment: DMSO vehicle | 101.2 | 68.4 | 42.4 | 32.7 | 41.2
co-treatment: GSK2194069 100 nM | 110 | 72.4 | 39 | 27.9 | 29.7
co-treatment: pictilisib 100 nM | 104 | 69.8 | 32.358 | 27.3 | 28.1

O=c1cc(-c2ccccc2)oc2c1ccc1ccccc12 [Alpha-Naphtoflavone]
cell viability [%]
Settings | 1 nM | 10 nM | 100 nM | 1000 nM | 10000 nM
BV-173 | 105 | 92.1 | 105 | 111 | 108
HEL | 96.1 | 95.6 | 102 | 96.4 | 102
HL-60 [5] | 118 | 83.8 | 95.6 | 104 | 103
K-562 | 95.8 | 101 | 109 | 90.2 | 108
KCL-22 [2] | 107 | 98.1 | 97.7 | 85.8 | 84.8
KG-1 [4] | 114 | 89.4 | 95.1 | 90.9 | 74.7
KU-812 | 98.8 | 99.3 | 96.3 | 96 | 89.9
LAMA-84 | 103 | 95.9 | 103 | 93.5 | 94.4
ML-2 [3] | 101 | 102 | 93.4 | 83.4 | 82.3
MOLM-13 | 115 | 93.5 | 96.2 | 80.9 | 90.1
MV4-11 | 106 | 109 | 107 | 89.6 | 97.1
Mono-Mac-6 | 92.7 | 90.3 | 93.6 | 111 | 113
NOMO-1 [1] | 99.7 | 94.3 | 108 | 95.6 | 95.2
SHI-1 | 113 | 99.2 | 97.7 | 95.8 | 96.8
THP-1 | 98.3 | 99.6 | 102 | 102 | 101

Settings | IC50 (cell viability) [µM]
HL-60 [10] | > 10
KCL-22 [7] | > 10
KG-1 [9] | > 10
ML-2 [8] | > 10
NOMO-1 [6] | > 10

cell viability [%], HL-60 [11]
Settings | 0.001 µM | 0.01 µM | 0.1 µM | 1 µM | 10 µM
co-treatment: AZD3965 100 nM | 103 | 99 | 102 | 100.7 | 101.2
co-treatment: DMSO vehicle | 102 | 99.7 | 97.6 | 98.3 | 101
co-treatment: GSK2194069 100 nM | 98.2 | 101 | 110 | 99.9 | 98.3
co-treatment: pictilisib 100 nM | 96.8 | 101.3 | 99.3 | 93 | 90
